Data published in US8034382B2, “Preparation method for biodegradable micro-particles containing drugs” (The Board of Trustees of the University of Arkansas, priority 2008, dated 2011).

Assays:
[1] = Encapsulation efficiency of drug in PLA/PLGA microparticles prepared with hydroxyapatite gel (UV absorption); assay type: physicochemical; conditions: for pH of aqueous suspension giving best encapsulation efficiency: hydroxyapatite gel suspension, PLA/PLGA polymers
Procedure: Leuprolide acetate and poly(lactic acid-co-glycolic acid) (PLGA) RG502H or PLA R202H were dissolved in a 24/76 (v/v) methanol/dichloromethane mixture at a concentration of 20% polymer and 10% leuprolide (w/v) to prepare the polymer-drug solution. An aqueous suspension of hyroxyapatite was prepared by dissolving 6 g of CaO in 400 ml water. Then phosphoric acid was added to adjust the pH of the aqueous suspension to between 9.0 and 10.0. Hydroxyapatite gel was formed in situ in the aqueous suspension under these conditions by the reaction 10 CaO+6 H3PO4=Ca10(PO4)6(OH)2+8 H2O. The drug/polymer solution (2 or 3 ml) was dispersed into the aqueous suspension medium. The dispersion was initially homogenized by a high-shear mixer at 5,000 or more rpm for 5 minutes. The solvents were then evaporated by stirring at 600 rpm for 1 hour or longer. Then concentrated HCl was added slowly until the hydroxyapatite dissolved and the suspension cleared. Hydroxyapatite is dissolved by the reaction Ca10(PO4)6(OH)2+20 HCl=10 CaCl2+6 H3PO4+2 H2O. The solidified microparticles were recovered by centrifugation and filtration.
Encapsulation efficiency refers to the mass of drug recovered in microparticles divided by the starting mass of drug in the polymer-drug phase. To quantify drug in microparticles, the microparticles were first dissolved in an ethanol/dichloroethane (28/72 v/v) mixture. The drug content of the solution was then measured by ultraviolet absorption.
In other experiments, the pH of the suspending medium was varied. […] Small anionic and cationic small molecule drugs were also tested. […] Verapamil HCl and nicardipine HCl were the small-molecule amine-containing drugs tested. Piroxicam, […], and salicylic acid were the small molecule anionic drugs tested.

[2] = Release kinetics of leuprolide acetate from PLGA microparticles (UV absorption of supernatant); assay type: physicochemical
Procedure: The release kinetics of leuprolide acetate from the PLGA microparticles prepared as described herein was determined and the results are shown in FIG. 1. Concentration of drug in the supernatant was measured by ultraviolet absorption. […] Initial burst release occurs due to the fast dissolution of peptide located at the microparticle surface followed by a time lag of 4-5 days. […] During the middle portion of the curve, peptide release occurs at a near constant rate.
FIG. 2 compares the release curve of FIG. 1 for 10% RG 502H with a published release curve for leuprolide acetate from microparticles formed by conventional oil-in-water emulsion with poly(vinyl alcohol) as emulsifier (D'Souza et al., 2005, AAPS PHARM. Sci. Tech. 6(4), E553).

CCNC(=O)[C@@H]1CCCN1C(=O)[C@H](CCCNC(=N)N)NC(=O)[C@H](CC(C)C)NC(=O)[C@@H](CC(C)C)NC(=O)[C@H](Cc1ccc(O)cc1)NC(=O)[C@H](CO)NC(=O)[C@H](Cc1c[nH]c2ccccc12)NC(=O)[C@H](Cc1c[nH]cn1)NC(=O)[C@@H]1CCC(=O)N1 [leuprolide acetate, Leuprolide acetate]
Encapsulation efficiency ([1]; pH of the suspending medium 7.0): 90%
Encapsulation efficiency ([1]; pH of the suspending medium pH 9.0 to pH 10.0, hydroxyapatite gel): ≥ 95%
Release curve compared with published curve for conventional o/w emulsion (poly(vinyl alcohol)) microparticles ([2]; 10% RG 502H, FIG. 2, versus D'Souza et al. 2005): nearly identical
Release profile (shape) ([2]; PLGA microparticles, FIG. 1): typical tri-phase
Time lag after initial burst release ([2]; PLGA microparticles, FIG. 1): 4 to 5 days

COc1ccc2cc([C@H](C)C(=O)O)ccc2c1 [naproxen acid]
pH of aqueous suspension giving best encapsulation efficiency [1]: ~5.0

CN1C(C(=O)Nc2ccccn2)=C(O)c2ccccc2S1(=O)=O [piroxicam]
pH of aqueous suspension giving best encapsulation efficiency [1]: ~5.0

O=C(O)c1ccccc1O [salicylic acid]
pH of aqueous suspension giving best encapsulation efficiency [1]: ~5.0
